# Experimental data reported in patent US7618957B2, “Perfluoroalkyl-containing complexes, process for their production as well as their use” (Bayer Schering Pharma Aktiengesellschaft, priority 2005, dated 2009).
# Key:
# mice = test: Acute toxicity after one-time intravenous administration in mice (preliminary); format: in vivo; conditions: one-time i.v., observation period of 7 days
# Description: After intravenous administration of the gadolinium complexes of the title substances of Examples 1d, 5c, 14c, 15c in mice (n=3; rate of injection: 2 ml/min), the acute systemic compatibility (LD50) was determined preliminarily. In each case, several dosages with an observation period of 7 days were examined. The acute toxicities that are to be expected can be seen in Table 1.
# [1] = test system: arteriosclerotic plaque of WHHL rabbits; test: MRT visualization of arteriosclerotic plaque after intravenous administration; format: in vivo, Watanabe rabbits; conditions: 50 μmol of Gd/kg i.v., 6 or 24 hours after administration
# Description: The pictures of FIG. 3 show MR images of the aorta 6 or 24 hours after intravenous administration of 50 μmol of Gd/kg of body weight of the title substances from Example 1d) and Example 14c in Watanabe rabbits (WHHL rabbits; genetically-induced arteriosclerosis) and in control animals without arteriosclerosis (white New Zealanders). […] The localization of the plaque, especially in the aortic arch as well as in the vascular passages, was confirmed by means of Sudan-3 staining. With this test, the suitability of the compounds according to the invention as markers for arteriosclerotic plaque could be shown.
# [2] = Excretion after intravenous administration in rats (ICP-AES); format: in vivo; conditions: 50 μmol of total gadolinium/kg i.v., 14 days after administration
# Description: After intravenous administration of 50 μmol of total gadolinium/kg of body weight of the gadolinium complexes of the title substances of Examples 1d, 5c, 14c, 15c in rats (n=3), the metal content was determined in fractions up to 14 days after administration by means of atom emission spectrometry (ICP-AES) in the excretion media of urine and feces, as well as in the body (the rest of the body).
# [3] = Relaxivity (T1 and T2 relaxation times) in water, NMR pulse spectrometer Minispec PC 20; format: physicochemical; conditions: 40° C., 0.47 T
# Description: (§1) The T1 and T2 relaxation times of water and plasma (bovine) with increasing concentrations of the gadolinium complexes of the title substances of Examples 1d, 5c, 14c, 15c contained therein were determined at 40° C. with use of an NMR pulse spectrometer (Minispec PC 20) at 0.47 T. The results are set forth in Table 1.
# [4] = Plasma kinetics after intravenous administration in rats (ICP-AES); format: in vivo; conditions: 50 μmol of total gadolinium/kg i.v.; for Elimination Half-Life of Blood: calculated with WinNonlin from plasma concentrations
# Description: After intravenous administration of 50 μmol of total gadolinium/kg of body weight of the gadolinium complexes of the title substances of Examples 1d, 5c, 14c, 15c in rats (n=3), blood samples were taken via a catheter in the common carotid artery at different points in time ([…].), the metal content was determined by means of atom emission spectrometry (ICP-AES) and converted to plasma values via a conversion factor (0.625). The elimination half-life was calculated by means of special software (WinNonlin) from the plasma concentrations.
# [5] = Relaxivity (T1 and T2 relaxation times) in plasma (bovine), NMR pulse spectrometer Minispec PC 20; format: physicochemical; conditions: 40° C., 0.47 T
# Description: as §1
# [6] = test system: VX2-tumor-carrying rabbits; test: MRT visualization of lymph node metastases and primary tumors in VX2-tumor-carrying rabbits; format: in vivo; conditions: rabbits with i.m. implanted VX2 tumors, 50 μmol of Gd/kg i.v.
# Description: The pictures of FIGS. 1 and 2 show MR images of iliac lymph nodes precontrast as well as up to 24 hours after intravenous administration of 50 μmol of Gd/kg of body weight of the title substance of Example 1d) in rabbits with i.m. implanted VX2 tumors. […] Zones where there was no signal rise within the lymph node were diagnosed as metastases and confirmed histologically (H/E staining of the lymph node sections) (FIG. 1).
# At later times (24 hours p.i.), this enhancement also propagates toward the center of the tumor.
# popliteal lymph nodes = test: MRT visualization of lymph nodes after intravenous administration in rats; format: in vivo; conditions: 50 μmol of Gd/kg i.v., up to 60 minutes p.i.
# Excerpt: By way of example, the pictures show MR images of popliteal lymph nodes at different points in time after intravenous administration of 50 μmol of Gd/kg of body weight of the title substance from Example 5c), title substance from Example 14c) and title substance from Example 15c) in rats.
# [7] = test system: inflammatory muscle lesions and necrotic areas; test: MRT visualization of inflammatory lesions and necrotic areas in rats; format: in vivo; conditions: Rose Bengal/xenon lamp induced lesion, 50 μmol of Gd/kg i.v.
# Description: By way of example, the pictures of FIG. 4 show MR images of inflammatory muscle lesions as well as necrotic areas at different points in time after intravenous administration of 50 μmol of Gd/kg of body weight of the title substance of Example 14c in rats. The inflammation/necrosis was induced by intravenous administration of Rose Bengal (20 mg/kg; 24 hours before the administration of contrast medium) and subsequent 20-minute irradiation with a xenon lamp.
Structure (SMILES),LD50 Mouse (mice),"signal rise in the arteriosclerotic plaque, T1-weighted inversion-recovery MR images of the aorta [1]",Body Retention 14 days [2],Relaxivity R1(w) = R1-relaxivity in water [3],Gd Content of Blood 24 Hours p.i. [4],Elimination Half-Life of Blood [4],Relaxivity R1(p) = R1-relaxivity in plasma [5],"signal rise in healthy lymph node tissue (iliac lymph nodes), T1-weighted turbo-spin-echo MR images ([6]; 15 to 60 minutes p.i.)","enhancement in the primary tumor, MR images ([6]; immediately after administration)","signal rise in the functional lymph node tissue (popliteal lymph nodes), T1-weighted turbo-spin-echo MR images (popliteal lymph nodes)","signal rise in the central necrosis, T1-weighted turbo-spin-echo MR images ([7]; 24 hours p.i.)","signal rise in the inflammatorily altered tissue, T1-weighted turbo-spin-echo MR images ([7]; up to 60 minutes p.i.)"
"CC(C(=O)NCC(=O)NCCN(CCC(F)(F)C(F)(F)C(F)(F)C(F)(F)C(F)(F)C(F)(F)C(F)(F)C(F)(F)F)C(=O)CO[C@H]1O[C@H](CO)[C@@H](O)[C@H](O)[C@@H]1O)N1CCN(CC(=O)[O-])CCN(CC(=O)[O-])CCN(CC(=O)[O-])CC1.[Gd+3] (stereo partly drawn) [Example 1, N-{[1,4,7-Tris-(carboxylatomethyl)-1,4,7,10-tetracyclododecane-10-N-(pentanoyl-3-aza-4-oxo-5-methyl-5-yl)]-2-aminoethyl}-N-(1H,1H,2H,2H-perfluorodecyl)-2-(1-O-α-d-mannopyranosyl)-acetamide, Gd Complex]",>10 mmol/kg,strong signal rise,0.0%,R1(w): 22.7 1/(mmol * s),0.7%,4.8 h,R1(p): 25.8 1/(mmol * s),strong signal rise,clear enhancement,–,–,–
"COCCOCCOCC(=O)N(CCNC(=O)CNC(=O)C(C)N1CCN(CC(=O)[O-])CCN(CC(=O)[O-])CCN(CC(=O)[O-])CC1)CCC(F)(F)C(F)(F)C(F)(F)C(F)(F)C(F)(F)C(F)(F)C(F)(F)C(F)(F)F.[Gd+3] (centres unmarked) [Example 5, N-{[1,4,7-Tris-(carboxylatomethyl)-1,4,7,10-tetraazacyclododecane-10-N-(pentanoyl-3-aza-4-oxo-5-methyl-5-yl)]-2-aminoethyl}-N-(1H,1H,2H,2H-perfluorodecyl)-2-[2-(2-methoxyethoxy)-ethoxy]-acetamide, Gd Complex]",–,–,0.0%,R1(w): 18.9 1/(mmol * s),0.0%,0.8 hour hours,R1(p): 24.8 1/(mmol * s),–,–,strong signal rise,–,–
"COCCOCCOCCOCC(=O)N(CCNC(=O)CNC(=O)C(C)N1CCN(CC(=O)[O-])CCN(CC(=O)[O-])CCN(CC(=O)[O-])CC1)CCC(F)(F)C(F)(F)C(F)(F)C(F)(F)C(F)(F)C(F)(F)C(F)(F)C(F)(F)F.[Gd+3] (centres unmarked) [Example 14, N-{[1,4,7-Tris-(carboxylatomethyl)-1,4,7,10-tetraazacyclododecane-10-N-(pentanoyl-3-aza-4-oxo-5-methyl-5-yl)]-2-aminoethyl}-N-(1H,1H,2H,2H-perfluorodecyl)-2-{-2-[2-(2-methoxyethoxy)-ethoxy]-ethoxy}-acetamide, Gd Complex]",7.5 mmol/kg,strong signal rise,0.0%,R1(w): 18.6 1/(mmol * s),0.0%,1.1 h,R1(p): 25.5 1/(mmol * s),–,–,strong signal rise,delayed signal rise,strong signal rise
"COCCOCC(=O)N(CCNC(=O)CNC(=O)C(C)N1CCN(CC(=O)[O-])CCN(CC(=O)[O-])CCN(CC(=O)[O-])CC1)CCC(F)(F)C(F)(F)C(F)(F)C(F)(F)C(F)(F)C(F)(F)C(F)(F)C(F)(F)F.[Gd+3] (centres unmarked) [Example 15, N-{[1,4,7-Tris-(carboxylatomethyl)-1,4,7,10-tetraazacyclododecane-10-N-(pentanoyl-3-aza-4-oxo-5-methyl-5-yl)]-2-aminoethyl}-N-(1H,1H,2H,2H-perfluorodecyl)-2-(2-methoxyethoxy)-acetamide, Gd Complex]",>10 mmol/kg,–,0.0%,R1(w): 17.2 1/(mmol * s),0.2%,4.8 h,R1(p): 24.6 1/(mmol * s),–,–,strong signal rise,–,–
